Experimental data taken from publication PMC6273491, “Two New Oleanane-Type Saponins with Anti-Proliferative Activity from Camellia oleifera Abel. Seed Cake” (Molecules, 2016).

Columns and labels:
Format in all cases: cell-based
[1] = tested on: human hepatocellular carcinoma cells BEL-7402; test: MTT anti-proliferative assay, BEL-7402; settings: 72 h treatment, read-out: Cell Lines IC50 BEL-7402
Method: (§1) The isolated Compounds 1, 2 and total seed cake saponins (C. oleifera) were tested against five human tumor cell lines (human hepatocellular carcinoma cells BEL-7402, human gastric carcinoma cells BGC-823, human breast cancer cells MCF-7, human promyelocytic leukemia cells HL-60 and human oral epidermoid carcinoma cells KB) using the MTT in vitro assay. Taxol, an anticancer agent, was used as the positive control.
(§2) The procedure for the anti-proliferative activity assay was performed according to the MTT reduction method using the human tumor cell lines BEL-7402, BGC-823, MCF-7, HL-60 and KB (Nanjing KeyGEN BioTECH Co., LTD, Jiangsu, China). In brief, the human tumor cell lines in culture medium (100 μL) were placed in a cell of a 96-well plate at a concentration of 4 × 10^3 cells/mL and incubated at 37 °C in 5% CO2 for 24 h. After 24 h, an additional 100 μL of complete medium with either: no additions (negative control), 0.1% DMSO (solvent control), 10 μg/mL Taxol (positive control), or different concentrations (0.391, 0.781, 1.562, 3.125, 6.25, 12.5, 25 and 50 μM) of 1 or 2 or total saponins (0.391, 0.781, 1.562, 3.125, 6.25, 12.5, 25 and 50 μg/mL). The treated cells were incubated as above for 72 h. […] The optical density (OD) of each well was measured at 490 nm using a Tunable Microplate Reader (EL-x800, BioTek Instruments, Winooski, VT, USA). […]

[2] = tested on: five human tumor cell lines (BEL-7402, BGC-823, MCF-7, HL-60 and KB); test: MTT anti-proliferative assay, panel of five human tumor cell lines; settings: 72 h treatment, range across BEL-7402, BGC-823, MCF-7, HL-60, KB, read-out: anti-proliferative activity IC50 values, range over five cell lines
Method: as §1, §2

[3] = tested on: human breast cancer cells MCF-7; test: MTT anti-proliferative assay, MCF-7; settings: MCF7, 72 h treatment, read-out: Cell Lines IC50 MCF-7
Method: as §1, §2

[4] = tested on: human gastric carcinoma cells BGC-823; test: MTT anti-proliferative assay, BGC-823; settings: 72 h treatment, read-out: Cell Lines IC50 BGC-823
Method: as §1, §2

[5] = tested on: human promyelocytic leukemia cells HL-60; test: MTT anti-proliferative assay, HL-60; settings: 72 h treatment, read-out: Cell Lines IC50 HL-60
Method: as §1, §2

[6] = tested on: human oral epidermoid carcinoma cells KB; test: MTT anti-proliferative assay, KB; settings: 72 h treatment, read-out: Cell Lines IC50 KB
Method: as §1, §2

Row | SMILES | IC50 [1] [µM] | IC50 [2] [µM] | IC50 [3] [µM] | IC50 [4] [µM] | IC50 [5] [µM] | IC50 [6] [µM]
1 | CC=C(C)C(=O)OC1CC(C)(C)CC2C3=CCC4C5(C)CCC(OC6OC(C(=O)OC)C(O)C(OC7OC(CO)C(O)C(O)C7OC7OC(CO)C(O)C(O)C7O)C6OC6OC(CO)C(O)C(O)C6O)C(C)(C=O)C5CCC4(C)C3(C)CC(O)C12CO [Compound 1, 16α-hydroxy-22α-O-angeloyl-23α-aldehyde-28-dihydroxymethylene-olean-12-ene-3β-O-[β-D-galacto-pyranosyl-(1→2)]-[β-D-glucopyranosyl-(1→2)-β-D-galactopyranosy-(1→3)]-β-D-glucopyranosid-uronic acid methyl ester] | 10.4 | 6.5 to 15.1 | 15.1 | 11.2 | 6.49 | 12.3
2 | CC=C(C)C(=O)OC1CC(C)(C)CC2C3=CCC4C5(C)CCC(OC6OC(C(=O)OC)C(O)C(OC7OC(CO)C(O)C(O)C7O)C6OC6OC(CO)C(O)C(O)C6O)C(C)(C=O)C5CCC4(C)C3(C)CC(O)C12CO [Compound 2, 16α-hydroxy-22α-O-angeloyl-23α-aldehyde-28-dihydroxymethylene-olean-12-ene-3β-O-[β-D-galactopyranosyl-(1→2)]-[β-D-galactopyranosyl-(1→3)]-β-D-glucopyranosiduronic acid methyl ester] | 4.22 | 1.8 to 5.5 | 3.92 | 5.5 | 1.8 | 3.47
